Data taken from US20260200923A1, “HETEROCYCLIC COMPOUNDS TARGETING THE NUDT5 PROTEIN” (Oxford University Innovation Limited, priority 2022, published 2026).
“Also recorded” adds a separate entry of the source. Blank lines part the entries; values can stand above or below the compound they belong to.

Tests used:
MTHFD1^K56R cells = test: growth of MTHFD1^K56R cells in adenosine-containing media; type: cell-based; settings: for effect on adenosine toxicity / viability: adenosine-containing media, 72 h
Description: HAP1 (KBM7-derived, Horizon Discovery, C859), and HAP1 MTHFD1^KO, MTHFD1^K56R, and MTHFD1^K386E cell lines were cultured in Iscove's Modified Dulbecco's Medium (IMDM, Sigma), supplemented with 10% Fetal Bovine Serum (FBS, Sigma) and 1% Penicillin/Streptomycin (P/S, Sigma).
MTHFD1^KO cells in dialyzed FBS media were treated with a single nucleotide or folic acid metabolite for 72 hours. Cells were then stained with Hoechst, imaged, and counted using an Operetta (Perkin Elmer). For the AMPK activator studies, cells were stained with Hoechst, imaged, and counted using an Opera (Perkin Elmer). Similarly, MTHFD1^K56R cells in dialyzed FBS media were treated with adenosine for 72 hours. Cells were then stained with Hoechst, imaged, and counted using an Operetta (Perkin Elmer).

MTHFD1^K386E cells = test: growth of MTHFD1^K386E cells with adenosine; type: cell-based; settings: synthetase mutant cells
Description: HAP1 (KBM7-derived, Horizon Discovery, […]), and HAP1 MTHFD1^KO, MTHFD1^[…], and MTHFD1^[…] cell lines were cultured in Iscove's Modified Dulbecco's Medium (IMDM, Sigma), supplemented with 10% Fetal Bovine Serum (FBS, Sigma) and 1% Penicillin/Streptomycin (P/S, Sigma).

NUDT14 = biological target: T1, NUDT14 (Homo sapiens, UniProt O95848); test: AMP-Glo catalytic assay, NUDT14; type: biochemical
T1 sequence (O95848 1-222): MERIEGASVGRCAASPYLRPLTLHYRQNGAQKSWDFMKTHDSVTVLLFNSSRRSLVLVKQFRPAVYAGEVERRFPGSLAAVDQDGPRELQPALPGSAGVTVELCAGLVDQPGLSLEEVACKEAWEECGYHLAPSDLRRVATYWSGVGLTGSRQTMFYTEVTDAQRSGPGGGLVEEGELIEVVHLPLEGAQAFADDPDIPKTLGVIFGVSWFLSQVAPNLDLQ
Description: (§1) To identify alternative X groups, a screening exercise was performed. […] Inhibition activities of the compounds were determined using AMP-Glo system (Promega). The compounds were diluted from 50 μM to 0 μM in a final reaction containing 20 mM Hepes, 100 mM NaCl, 0.5 mM TCEP, 1 mM MgCl2 and 0.1% BSA, pH 7.4. The reactions were performed in 1536 well plate in […] reaction volume with 2 nM of NUDT5 and NUDT14, and […] of ADPr as the substrate. The final DMSO concentration was 0.5% for all reactions. NUDT5 reactions were incubated for 20 minutes while NUDT14 reactions were carried out for 1 hour at room temperature. […] The reactions were further incubated with the 4 μl of Detection solution for 1 hour at room temperature. Luminescence signals were then measured in PHERAstar FSX plate reader. Experiments were done in triplicate sets and data were analysed by GraphPad Prism 9. Data are represented as the mean±SD of three biological experiments: […]

NUDT5 [1] = biological target: T2, NUDT5 (Homo sapiens, UniProt Q9UKK9); test: AMP-Glo catalytic assay, NUDT5; type: biochemical; settings: 2 nM NUDT5, ADPr substrate, 20 minutes, mean±SD
Description: as §1

HAP-1 cells = test: 6-thioguanine assay (CellTiter-Glo viability); type: cell-based; settings: 0.2 μg/ml 6-thioguanine, 72 h; HAP1 (and NB4, FIG. 11)
Description: NB-4 and HAP1 cells (1000 cells/well in 40 uL) were seeded onto a 384-well plate containing compounds. DMSO or 0.2 μg/ml 6-thioguanine (A4882, Sigma-Aldrich) was added into respective wells. After 72 h incubation cell viability was measured by using CellTiter-Glo 2.0 Assay (G9242, Promega). Compounds in the 384-well plates were prepared by using Echo Acoustic Dispenser.

luciferase-tagged NUDT5 = biological target: T3, luciferase-tagged NUDT5 (Homo sapiens, UniProt Q9UKK9); test: NanoBRET target engagement assay; type: cell-based; settings: live cells, 2 h
T3 construct: expressed in transfected cells; host or cells: HEK293T
Description: For NanoBRET target engagement assay, intracellular TE Nano-Glo substrate/inhibitor (N2161, Promega) was used according to the manufacturer's instruction. In brief, 200,000 HEK293T cells/ml was seeded in a T-75 flask. N-terminal NanoLuciferse NUDT5 was reverse transfected into the cells using Fugene HD transfection reagent (E2312, Promega). After 24 h the transfected HEK293 (200,000 cells/ml) were replated onto a 384-well plate containing compounds. 2.5 nM NU008116a was used as the final tracer concentration. After 2 h, NanoLuc substrate and inhibitor was added into each well and the signals were measured by PHERAstar Microplate Reader.
(§2) Compounds were dispensed in the 384-well plates by using Echo Acoustic Dispenser.

NUDT5-CRBN interaction = biological target: T4, NUDT5-CRBN interaction (Homo sapiens, UniProt Q96SW2+Q9UKK9); test: NanoBRET ternary complex formation (protein-protein interaction) assay; type: cell-based; settings: HEK293 cells, 4 h
T4 construct: expressed in transfected cells; host or cells: HEK293
Description: For NanoBRET protein-protein interaction assay, NanoBRET Nano-Glo Detection System (N1662, Promega) was used according to the manufacturer's instruction. In brief, 220,000 HEK293 cells/ml was seeded in a 6-well plate. After 6 h, N-terminal nanoLuc NUDT5 and Halo-tag CRBN were then transfected into the cells using Fugene HD transfection reagent (E2312, Promega). The transfected HEK293 (220,000 cells/ml) were then replated onto a 384-well plate containing compounds. After 4 h incubation, NanoLuc substrate was added into each well and the signals were measured by PHERAstar Microplate Reader.
as §2

NUDT5 [2] = biological target: T2, NUDT5; test: NUDT5 degradation by Western blot in HEK293 cells; type: cell-based; set-up: endogenous in cells; host or cells: HEK293 (also CRBN knock-out HEK293 for A13)
Description: For Western blots, proteins were separated on polyacrylamide gels with SDS running buffer (50 mM Tris, 380 mM Glycine, 7 mM SDS) and transferred to PVDF membranes. All membranes were then blocked with blocking buffer (5% w/v milk powder, BioRad) in TBST (50 mM Tris (tris(hydroxymethylaminomethane), 150 mM NaCl, 0.05% (v/v) Tween 20, adjusted to pH 7.6) Proteins were probed with antibodies against phospho-AMPK (50081S, 1:2000, Cell Signaling Technologies), AMPK (5832S, 1:2000, Cell Signaling Technologies), PML (ab179466, 1:1000, abeam), PARP8 (NBP213733, 1:1000, Novus Biologicals), ATF2/7 (82870, 1:1000, Cell Signaling Technologies), alpha-Tubulin (ab7291, 1:1000, Abeam), phospho-UBTF (ab182583, 1:1000, abeam), UBTF (HPA006385, 1:1000, Sigma), RBM38 (AV40862, 1:1000, Sigma), or NUDT5 (ab129172, 1:1000, abeam), detected by HRP (horse-radish peroxidase) conjugated donkey anti-rabbit IgG antibody (Pierce) or donkey anti-mouse antibody IgG antibody (Pierce) and visualized with Clarity ECL Western Blotting substrate (BioRad), according to provided protocol.

Compound: Nc1ncnc2c1ncn2[C@@H]1O[C@H](CO)[C@@H](O)[C@H]1O [adenosine]
- effect of addition on proliferation (MTHFD1^K56R cells; cyclohydrolase mutant cells, 50 μM adenosine): caused a strong antiproliferative response
- effect of addition on growth (MTHFD1^K386E cells): enhanced the growth

- IC50 (NUDT14): 974 ± 26 nM
- IC50 (NUDT5 [1]): 375 ± 12 nM
Compound: C=CC(=O)N1CCC[C@@H](n2nc(-c3ccc(Oc4ccccc4)cc3)c3c(N)ncnc32)C1 [Ibrutinib, reference compound]

Compound: Cn1c(=O)c2c(nc(N3CCNCC3)n2Cc2nnc(-c3ccc(Cl)c(Cl)c3)o2)n(C)c1=O [TH5427, reference compound]
- effect on adenosine toxicity / viability (MTHFD1^K56R cells): did not affect the viability
- rescue of 6-TG toxicity (HAP-1 cells): did not show a rescue; also recorded: neither the negative control nor TH5427 gave any significant effects

Compound: CN1C(=O)CCC(N2C(=O)c3ccc(N4CCN(CC5CCN(C(=O)N6CCN(c7nc8c(c(=O)n(C)c(=O)n8C)n7Cc7nnc(-c8ccc(Cl)c(Cl)c8)o7)CC6)CC5)CC4)cc3C2=O)C1=O (stereo not drawn) [dNUDT5nc, 7-((5-(3,4-dichlorophenyl)-1,3,4-oxadiazol-2-yl)methyl)-1,3-dimethyl-8-(4-(4-((4-(2-(1-methyl-2,6-dioxopiperidin-3-yl)-1,3-dioxoisoindolin-5-yl)piperazin-1-yl)methyl)piperidine-1-carbonyl)piperazin-1-yl)-3,7-dihydro-1H-purine-2,6-dione]
- effect on adenosine toxicity / viability (MTHFD1^K56R cells): did not cause any effects
- rescue of 6-TG toxicity (HAP-1 cells): neither the negative control nor TH5427 gave any significant effects
- NUDT5 engagement / recruitment (luciferase-tagged NUDT5): engaged their cognate target NUDT5 in live cells

- ternary complex formation between NUDT5 and CRBN (NUDT5-CRBN interaction): induced the ternary complex
- NUDT5 degradation at 100 nM, 20 h (%) (NUDT5 [2]; 100 nM, 20 h): 39%
- NUDT5 degradation (NUDT5 [2]; Western blot, FIG. 12A): reasonable NUDT5 degrader
Compound: Cn1c(=O)c2c(nc(N3CCN(CC4CCN(c5ccc6c(c5)C(=O)N(C5CCC(=O)NC5=O)C6=O)CC4)CC3)n2Cc2nnc(-c3ccc(Cl)c(Cl)c3)o2)n(C)c1=O (stereo not drawn) [Compound 070, 7-((5-(3,4-dichlorophenyl)-1,3,4-oxadiazol-2-yl)methyl)-8-(4-((1-(2-(2,6-dioxopiperidin-3-yl)-1,3-dioxoisoindolin-5-yl)piperidin-4-yl)methyl)piperazin-1-yl)-1,3-dimethyl-3,7-dihydro-1H-purine-2,6-dione]
